This passage reports IC50 and Kd results from patent publication US8802866B2, “Pyridinylimidazolone derivatives for the inhibition of PI3 kinases” (Merck Patent GmbH, priority 2009, dated 2014).

In one assay the target is PI3Kalpha (Homo sapiens, UniProt P42336). In words: Biochemical PI3Kalpha assay (neomycin SPA, lipid phosphorylation). The settings on record: human recombinant GST-PI3K. The procedure: (§1) The efficacy of the compounds according to the invention in the inhibition of PI3K-induced lipid phosphorylation can be investigated in the following binding assay. The assay combines scintillation proximity assay (SPA) technology (Amersham) with the ability of neomycin (a polycationic antibiotic) to bind phospholipids with high affinity and specificity. […] The coating of SPA beads with neomycin allows the detection of phosphorylated lipid substrates after incubation with recombinant PI3K and radioactive ATP in the same well by trapping the radioactive phospholipids by the SPA beads owing to their specific binding to neomycin. […] After incubation at room temperature for 120 minutes with gentle stirring, the reaction was stopped by addition of 200 μl of a solution comprising 250 μg of neomycin-coated PVT-SPA beads, ATP 60 mM and EDTA 6.2 mM in PBS. The assay is incubated at room temperature for a further 60 minutes with gentle stirring in order to enable binding of the phospholipids to the neomycin-SPA beads. After precipitation of the neomycin-coated PVT-SPA beads over 5 minutes at 1500×g, radioactive Ptdlns(3)P is quantified by scintillation counting in a Wallac Micro-Beta™ plate counter.
PI3Kalpha, sequence (P42336 whole entry): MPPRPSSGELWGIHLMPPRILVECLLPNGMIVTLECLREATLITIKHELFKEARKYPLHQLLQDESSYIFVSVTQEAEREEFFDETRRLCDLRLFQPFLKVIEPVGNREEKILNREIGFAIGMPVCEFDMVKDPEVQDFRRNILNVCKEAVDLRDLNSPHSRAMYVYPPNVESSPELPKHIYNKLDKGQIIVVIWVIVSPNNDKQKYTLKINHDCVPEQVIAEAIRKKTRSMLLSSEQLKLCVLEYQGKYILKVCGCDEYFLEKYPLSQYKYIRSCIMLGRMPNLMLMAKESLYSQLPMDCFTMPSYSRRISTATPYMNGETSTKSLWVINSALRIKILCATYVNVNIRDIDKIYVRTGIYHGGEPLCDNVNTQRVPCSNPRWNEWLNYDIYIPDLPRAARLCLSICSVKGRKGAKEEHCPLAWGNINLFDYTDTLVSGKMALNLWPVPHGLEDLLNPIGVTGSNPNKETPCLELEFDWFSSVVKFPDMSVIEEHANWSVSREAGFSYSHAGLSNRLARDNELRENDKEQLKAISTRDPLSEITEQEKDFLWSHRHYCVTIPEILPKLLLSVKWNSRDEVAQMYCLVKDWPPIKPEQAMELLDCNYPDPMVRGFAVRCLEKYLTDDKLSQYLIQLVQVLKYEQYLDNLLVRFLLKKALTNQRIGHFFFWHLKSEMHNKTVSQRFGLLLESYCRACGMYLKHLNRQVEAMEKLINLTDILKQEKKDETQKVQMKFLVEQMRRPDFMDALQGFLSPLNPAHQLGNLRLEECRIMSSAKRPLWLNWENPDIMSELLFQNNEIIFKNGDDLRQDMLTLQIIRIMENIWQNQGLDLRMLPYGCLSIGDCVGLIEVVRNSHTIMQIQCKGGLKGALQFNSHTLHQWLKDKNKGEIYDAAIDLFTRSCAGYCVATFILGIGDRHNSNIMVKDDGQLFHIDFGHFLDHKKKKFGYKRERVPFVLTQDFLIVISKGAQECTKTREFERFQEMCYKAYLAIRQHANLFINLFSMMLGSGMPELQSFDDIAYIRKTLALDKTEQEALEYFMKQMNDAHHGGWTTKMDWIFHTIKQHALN
PI3Kalpha, sequence (P27986 whole entry partner): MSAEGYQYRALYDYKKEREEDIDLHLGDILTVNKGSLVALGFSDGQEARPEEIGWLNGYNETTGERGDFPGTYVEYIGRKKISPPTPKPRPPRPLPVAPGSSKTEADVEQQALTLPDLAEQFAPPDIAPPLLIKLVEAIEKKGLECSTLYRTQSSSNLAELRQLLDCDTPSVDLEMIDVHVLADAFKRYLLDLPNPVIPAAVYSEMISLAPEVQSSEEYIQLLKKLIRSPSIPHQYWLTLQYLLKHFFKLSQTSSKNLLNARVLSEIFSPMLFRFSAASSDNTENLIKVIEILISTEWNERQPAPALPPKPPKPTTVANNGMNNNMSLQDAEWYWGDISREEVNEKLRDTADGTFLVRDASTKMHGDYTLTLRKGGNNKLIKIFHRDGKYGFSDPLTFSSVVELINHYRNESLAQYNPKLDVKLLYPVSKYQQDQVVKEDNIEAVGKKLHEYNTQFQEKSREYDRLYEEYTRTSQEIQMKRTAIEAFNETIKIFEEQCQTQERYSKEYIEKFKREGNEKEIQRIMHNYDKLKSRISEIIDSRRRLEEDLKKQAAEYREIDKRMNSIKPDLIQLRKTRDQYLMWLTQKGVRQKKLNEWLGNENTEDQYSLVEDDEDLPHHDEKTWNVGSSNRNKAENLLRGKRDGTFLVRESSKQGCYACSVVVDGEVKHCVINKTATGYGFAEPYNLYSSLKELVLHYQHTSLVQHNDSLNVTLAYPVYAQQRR

For assay [1], the target named is recombinant PI3Kalpha (shortened form of the catalytic subunit) (Homo sapiens, UniProt P42336). In words: BIACORE PI3K binding assay (SPR). The conditions noted are these: 25° C. As for the experimental part: SPR measurements of the binding affinities and binding kinetics on PI3Kalpha surfaces with the aid of Biacore systems. The experiments are carried out on a Biacore S51 “Compound Characterization” or a Biacore T100 instrument utilising the default application “Kinetics/Affinity” Experimental conditions: recombinant PI3Kalpha (shortened form of the catalytic subunit, missing N terminal from about 100 to 150 aa, Mw about 110 kDa, prepared by Proteros Biostructures GmbH) is immobilised on Biacore CM5 chips (25° C., flow rate: 10 μl/min, utilising amine coupling at pH 7.40—Biacore Standard protocol). PI3Kalpha is employed in concentrations between 10 and 25 μg/ml. Depending on the duration of the injection time, immobilisation levels from 1700 to 11000 RU are achieved. The substances to be measured are added in the form of a titration series. The substance concentration is doubled for each subsequent injection. 10 different substance concentrations which cover a 500-fold dilution range are usually injected. […] Kinetic titration experiments are carried out at 25° C. with a flow rate of 30 μl/min, the sample contact time is 180 s, and the dissociation time is 240 s in a running buffer (20 mM HEPES pH7.40, 150 mM NaCl, 5 mM MgCl2, 1 mM DTT, 0.1 mM EDTA, 0.05% Tween 20) comprising 2% of DMSO. Buffer injections (as double references) identical to the sample injections are carried out in each case at the beginning of a continuous series. Solvent correction cycles (eight correction points, 1.4%-2.8% DMSO) are carried out at equal intervals. In order to condition the surface, at least five start-up cycles (buffer injections) are carried out. Data points are collected with a sample rate of 10 Hz. Surface regeneration is carried out after each measurement cycle, apart from after the solvent correction runs. For this purpose, two times 100 mM NaHCO3 pH 8.60 are injected for 30 sec. Data sets are processed and analysed using the Biacore S51 Evaluation software, version 1.2.1, or Biacore T100 Evaluation, version 2.0. Solvent-corrected and double-referenced association and dissociation phase data are adapted to a simple 1:1 interaction model with mass transport limitations.
recombinant PI3Kalpha (shortened form of the catalytic subunit), sequence (P42336 151-1068 limits assumed): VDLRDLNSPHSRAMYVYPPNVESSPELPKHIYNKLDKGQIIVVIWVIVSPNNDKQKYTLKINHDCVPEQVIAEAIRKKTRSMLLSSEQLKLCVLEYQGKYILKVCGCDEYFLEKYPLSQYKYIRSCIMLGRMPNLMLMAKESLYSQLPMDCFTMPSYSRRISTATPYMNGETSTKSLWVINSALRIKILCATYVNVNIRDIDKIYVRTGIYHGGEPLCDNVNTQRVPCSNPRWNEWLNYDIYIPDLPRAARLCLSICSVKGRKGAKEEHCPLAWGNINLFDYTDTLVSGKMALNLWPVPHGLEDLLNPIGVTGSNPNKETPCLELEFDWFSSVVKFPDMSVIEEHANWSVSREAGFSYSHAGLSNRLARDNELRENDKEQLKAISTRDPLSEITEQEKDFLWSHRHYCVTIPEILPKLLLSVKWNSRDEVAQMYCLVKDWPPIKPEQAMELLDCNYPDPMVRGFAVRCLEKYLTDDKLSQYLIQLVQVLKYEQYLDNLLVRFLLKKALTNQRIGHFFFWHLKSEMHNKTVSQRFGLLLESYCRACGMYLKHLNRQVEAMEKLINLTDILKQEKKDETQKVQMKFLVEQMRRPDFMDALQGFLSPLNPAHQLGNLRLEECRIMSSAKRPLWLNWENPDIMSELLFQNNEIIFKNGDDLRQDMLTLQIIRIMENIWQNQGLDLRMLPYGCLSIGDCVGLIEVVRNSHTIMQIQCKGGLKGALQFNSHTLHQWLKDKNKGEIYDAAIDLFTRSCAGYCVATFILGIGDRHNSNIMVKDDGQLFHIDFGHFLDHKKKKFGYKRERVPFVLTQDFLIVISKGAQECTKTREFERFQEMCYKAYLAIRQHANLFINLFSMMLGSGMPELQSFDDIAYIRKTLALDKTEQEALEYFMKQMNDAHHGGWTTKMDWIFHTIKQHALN
(In general: In SPR one partner is held on a chip, and binding of the other changes the refractive index at the surface.)

For a further assay, the target named is DNA-PK protein complex (Homo sapiens, UniProt P78527). The assay is described as follows: Biochemical DNA-PK assay (FlashPlate). As for the experimental part:
The kinase assay is carried out in […] microtitre FlashPlates®, coated with streptavidin. […] The reaction is stopped by addition of 50 μl/well of 200 mM EDTA. After incubation for 30 minutes, the liquids are removed at room temperature. Each well is washed three times with 100 μl of 0.9% NaCl solution. Non-specific reaction (blank) is determined using a proprietary kinase inhibitor (10 μM). The radioactivity is measured by means of a Topcount. […] Todd Eary, J. G. Schiro, H. Huang, L. E. Burgess, E. A. Kesicki, and J. Halbrook.

The next assay addresses PI3Kbeta (Homo sapiens, UniProt P42338). The assay is described as follows: Biochemical PI3Kbeta assay (neomycin SPA, lipid phosphorylation). The settings on record: human recombinant GST-PI3K. The procedure:
as §1

Assay [2] concerns PI3K-dependent phosphorylation of PKB at Serin 473 in PC3 cells. In words: Cellular PI3K assay (P-S473-PKB Luminex assay in PC3 cells). The conditions noted are these: Homo sapiens, PC-3, 0.5 h; PC3 cells, 30 min, serum-free, P-S473-PKB; read-out: IC50 (cell). The assay is classed as cell-based. As for the experimental part: The cellular assay for determination of the P-S473-PKB level is carried out as a Luminex assay in 96-well format in PC3 cells.
PC3 cells are sown out with 20,000 cells per well in 100 μl medium (45% […]/45% Ham's F12/10% FCS) and incubated on the following day for 30 min with a serial dilution of the test substance (7 concentrations) under serum-free conditions. The cells are subsequently lysed using 90 μl of lysis buffer (20 mM Tris/HCl pH 8.0, 150 mM NaCl, 1% NP40, 10% glycerol, 1% phosphatase inhibitor I, 1% phosphatase inhibitor II, 0.1% protease inhibitor cocktail III, 0.01% benzonase) per well, and the lysates are separated off from insoluble cell constituents by means of centrifugation through a 96-well filter plate (0.65 μm). The lysates are incubated overnight at 4° C. with shaking with Luminex beads to which an anti-total PKB antibody is coupled. The detection is carried out on the following day by addition of a P-S473-PKB antibody and a species-specific PE-labelled secondary antibody. The detection of P-S473-PKB is carried out by measurement in a Luminex100 instrument by determination of 100 events per cavity in a measurement time of 60 sec.

PI3Kbeta, sequence (P42338 whole entry): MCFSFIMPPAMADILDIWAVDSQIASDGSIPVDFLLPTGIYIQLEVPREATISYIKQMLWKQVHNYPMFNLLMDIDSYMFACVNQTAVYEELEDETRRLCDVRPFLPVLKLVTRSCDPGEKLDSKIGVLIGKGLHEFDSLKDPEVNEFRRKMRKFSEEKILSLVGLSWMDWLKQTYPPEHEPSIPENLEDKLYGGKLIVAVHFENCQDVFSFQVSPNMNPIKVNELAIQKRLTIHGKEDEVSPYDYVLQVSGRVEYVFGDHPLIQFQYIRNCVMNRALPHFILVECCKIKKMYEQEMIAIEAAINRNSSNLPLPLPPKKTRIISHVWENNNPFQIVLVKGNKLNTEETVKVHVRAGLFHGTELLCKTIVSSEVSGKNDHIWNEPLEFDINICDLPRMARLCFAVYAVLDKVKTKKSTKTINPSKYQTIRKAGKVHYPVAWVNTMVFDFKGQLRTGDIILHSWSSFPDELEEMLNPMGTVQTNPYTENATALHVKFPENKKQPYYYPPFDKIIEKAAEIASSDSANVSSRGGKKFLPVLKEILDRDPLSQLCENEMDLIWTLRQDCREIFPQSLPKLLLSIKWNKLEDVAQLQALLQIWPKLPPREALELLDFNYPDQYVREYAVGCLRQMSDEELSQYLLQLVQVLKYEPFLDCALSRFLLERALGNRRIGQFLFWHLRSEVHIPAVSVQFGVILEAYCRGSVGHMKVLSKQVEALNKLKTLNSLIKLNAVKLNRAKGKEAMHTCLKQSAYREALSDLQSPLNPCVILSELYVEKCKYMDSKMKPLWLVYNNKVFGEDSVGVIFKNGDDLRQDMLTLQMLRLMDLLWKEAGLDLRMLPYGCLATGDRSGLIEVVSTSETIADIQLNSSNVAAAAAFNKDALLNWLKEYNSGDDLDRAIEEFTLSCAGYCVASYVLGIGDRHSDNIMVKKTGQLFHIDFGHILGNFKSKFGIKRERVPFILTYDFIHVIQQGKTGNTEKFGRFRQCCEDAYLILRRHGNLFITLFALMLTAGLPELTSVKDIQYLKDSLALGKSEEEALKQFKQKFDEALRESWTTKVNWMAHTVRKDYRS
PI3Kbeta, sequence (P27986 whole entry partner): as the sequence (P27986 whole entry partner) above

One may read the IC50 as the midpoint of a concentration-inhibition curve. As usually defined, the Kd is a measure of binding affinity in units of concentration. In the case of `COc1ccc(-c2ccnc(-c3c[nH]c(=O)n3-c3ccc(N4CCNCC4)c(C(F)(F)F)c3)c2)cn1` [Example A4, 5-(6-Methoxy-[3,4′]bipyridinyl-2′-yl)-1-(4-piperazin-1-yl-3-trifluoromethylphenyl)-1,3-dihydroimidazol-2-one], the IC50 (at PI3Kalpha; at DNA-PK protein complex; on PI3Kbeta; in assay [2]) was 100 to 10000 nM throughout. For the same compound, in assay [1], the Kd was 100 to 10000 nM.
On to `Cn1cc(-c2cc(-c3cnc4ccccc4c3)ccn2)n(-c2ccc(N3CCNCC3)c(C(F)(F)F)c2)c1=O` [Example A19, 1-Methyl-3-(4-piperazin-1-yl-3-trifluoromethylphenyl)-4-(4-quinolin-3-ylpyridin-2-yl)-1,3-dihydroimidazol-2-one], for which the IC50 (at PI3Kalpha; at DNA-PK protein complex; at PI3Kbeta; in assay [2]) was 100 to 10000 nM in each case. Moreover, the Kd in assay [1] lay within 100 to 10000 nM.
For the compound `CC(C)(C#N)c1ccc(-n2c(-c3cc(-c4cnc5[nH]ccc5c4)ccn3)c[nH]c2=O)cc1` [Example A28, 2-Methyl-2-(4-{2-oxo-5-[4-(1H-pyrrolo[2,3-b]pyridin-5-yl)pyridin-2-yl]-2,3-dihydroimidazol-1-yl}phenyl)propionitrile], the IC50 is 0.1 to 100 nM at PI3Kalpha, 0.1 to 100 nM at DNA-PK protein complex, 100 to 10000 nM on PI3Kbeta and 100 to 10000 nM in assay [2]. For the same compound, the Kd in assay [1] lay in the range of 0.1 to 100 nM.
For the compound `COC(=O)c1c[nH]c2ncc(-c3ccnc(-c4cn(C)c(=O)n4-c4ccc(C(C)(C)C#N)cc4)c3)cc12` [Example A29, Methyl 5-(2-{3-[4-(cyanodimethylmethyl)phenyl]-1-methyl-2-oxo-2,3-dihydro-1H-imidazol-4-yl}pyridin-4-yl)-1H-pyrrolo[2,3-b]pyridine-3-carboxylate], the IC50 lay in the range of 0.1 to 100 nM on PI3Kalpha, 0.1 to 100 nM at DNA-PK protein complex, 100 to 10000 nM at PI3Kbeta and 100 to 10000 nM in assay [2]. The Kd in assay [1] is 0.1 to 100 nM.
With `Cn1cc(-c2cc(-c3cnc4[nH]ccc4c3)ccn2)n(-c2ccc(C(C)(C)C(=O)O)cc2)c1=O` [Example A33, 2-Methyl-2-(4-{3-methyl-2-oxo-5-[4-(1H-pyrrolo[2,3-b]pyridin-5-yl)pyridin-2-yl]-2,3-dihydroimidazol-1-yl}phenyl)propionic acid], the IC50 on PI3Kalpha was 100 to 10000 nM; on DNA-PK protein complex, 0.1 to 100 nM; at PI3Kbeta, 100 to 10000 nM; in assay [2], above 10000 nM. The Kd in assay [1] lay in the range of 0.1 to 100 nM.
`Cn1cc(-c2cc(-c3cnc(N)c(C#N)c3)ccn2)n(-c2ccc(C(C)(C)C#N)cc2)c1=O` [Example A37, 6-Amino-2′-{3-[4-(cyanodimethylmethyl)phenyl]-1-methyl-2-oxo-2,3-dihydro-1H-imidazol-4-yl}-[3,4′]bipyridinyl-5-carbonitrile]: the IC50 on PI3Kalpha was 100 to 10000 nM; against DNA-PK protein complex, 0.1 to 100 nM; on PI3Kbeta, 100 to 10000 nM; in assay [2], 100 to 10000 nM. Further, in assay [1], the Kd lay within 0.1 to 100 nM.
For the compound `Cn1cc(-c2cc(-c3cnc4[nH]cnc4c3)ccn2)n(-c2ccc(C(C)(C)C#N)cc2)c1=O` [Example A38, 2-(4-{5-[4-(3H-Imidazo[4,5-b]pyridin-6-yl)pyridin-2-yl]-3-methyl-2-oxo-2,3-dihydroimidazol-1-yl}phenyl)-2-methylpropionitrile], the IC50 lay within 0.1 to 100 nM on PI3Kalpha, 100 to 10000 nM against DNA-PK protein complex, 100 to 10000 nM on PI3Kbeta and 100 to 10000 nM in assay [2]. Further, in assay [1], the Kd was 0.1 to 100 nM.
`Cn1cc(-c2cc(-c3cnc4[nH]ccc4c3)ccn2)n(-c2ccc(C#N)cc2)c1=O` [Example A48, 4-{3-Methyl-2-oxo-5-[4-(1H-pyrrolo[2,3-b]pyridin-5-yl)pyridin-2-yl]-2,3-dihydro-imidazol-1-yl}benzonitrile]: the IC50 fell in the range of 100 to 10000 nM at PI3Kalpha, 0.1 to 100 nM against DNA-PK protein complex, 100 to 10000 nM on PI3Kbeta and 100 to 10000 nM in assay [2]. Further, the equilibrium dissociation constant (Kd) in assay [1] fell in the range of 100 to 10000 nM.
As for `Cn1cc(-c2cc(-c3cnc(N)c(C(F)(F)F)c3)ccn2)n(-c2ccc(N3CCNCC3)c(C(F)(F)F)c2)c1=O` [Example A56, 4-(6-Amino-5-trifluoromethyl-[3,4′]bipyridinyl-2′-yl)-1-methyl-3-(4-piperazin-1-yl-3-trifluoromethylphenyl)-1,3-dihydroimidazol-2-one], the IC50 (on PI3Kalpha; against DNA-PK protein complex; on PI3Kbeta; in assay [2]) was 100 to 10000 nM throughout. The dissociation constant Kd in assay [1] is 0.1 to 100 nM.
As for `Cn1cc(-c2cc(-c3ccc4[nH]ccc4c3)ccn2)n(-c2ccc(N3CCNCC3)c(C(F)(F)F)c2)c1=O` [Example A57, 4-[4-(1H-Indol-5-yl)pyridin-2-yl]-1-methyl-3-(4-piperazin-1-yl-3-trifluoromethyl-phenyl)-1,3-dihydroimidazol-2-one], the IC50 (at PI3Kalpha; against DNA-PK protein complex; on PI3Kbeta; in assay [2]) was 100 to 10000 nM each time. Besides, the Kd in assay [1] lay within 100 to 10000 nM.
As to `Cn1cc(-c2cc(-c3ccc(N)nc3)ccn2)n(-c2ccc(N3CCNCC3)c(C(F)(F)F)c2)c1=O` [Example A59, 4-(6-Amino-[3,4′]bipyridinyl-2′-yl)-1-methyl-3-(4-piperazin-1-yl-3-trifluoromethyl-phenyl)-1,3-dihydroimidazol-2-one], the IC50 fell in the range of 100 to 10000 nM on PI3Kalpha, 0.1 to 100 nM on DNA-PK protein complex, 100 to 10000 nM at PI3Kbeta and 100 to 10000 nM in assay [2]. Moreover, the Kd in assay [1] lay within 0.1 to 100 nM.
Consider `Cn1cc(-c2cc(-c3ccc(NS(C)(=O)=O)cc3)ccn2)n(-c2ccc(N3CCNCC3)c(C(F)(F)F)c2)c1=O` [Example A62, N-(4-{2-[1-Methyl-2-oxo-3-(4-piperazin-1-yl-3-trifluoromethylphenyl)-2,3-dihydro-1H-imidazol-4-yl]pyridin-4-yl}phenyl)methanesulfonamide], for which the IC50 was above 10000 nM on PI3Kalpha, 0.1 to 100 nM at DNA-PK protein complex, above 10000 nM at PI3Kbeta and above 10000 nM in assay [2]. Besides, in assay [1], the Kd is above 10000 nM.
